Data set [1] is described as follows: Experimental complexation with iron. In kind it is binding. Particulars: ligand–iron(III), stoichiometry 1, text.
In a further data set the test system is P. berghei ANKA. Description: Four day suppressive test in P. berghei-infected mice. It counts as in vivo, P. berghei (BALB/c mice).
Data set [2] can be described thus: In vitro hemolysis on human red blood cells. It counts as cell-based. To be noted: red blood cells (2% final suspension), % Haemolysis.

The record followed here is PMC8908514 (ACS Omega, 2022).

Turning to `CCN(CC)CCCC(C)Nc1ccnc2cc(Cl)ccc12` (stereo not shown) [CQ, chloroquine], the binding constant entry in data set [1] is listed as “about 6300 M^–1”. The same molecule came in with a parasitemia reduction percentage in the data set on P. berghei ANKA (20 mg kg^–1, day 4) of 99.80%. For the same molecule, the “%P, percentage of parasitemia” value in the data set with P. berghei ANKA (20 mg kg^–1 for 4 days, day 4 post-infection, n = 6) was 0.2%. The hemolysis at 45 min, 1 mM in data set [2] was determined as 7.4%.
